According to patent US20130303500A1, “COMPOUNDS AND METHODS FOR TREATING NEOPLASIA” (Medexis S.A., priority 2010, published 2013):

Tests used:
CAKI (Renal) cells = test: MTT cell proliferation/viability assay, CAKI; assay type: cell-based; settings: 72 h
Method: (§1) Cell proliferation/viability was assessed by the MTT [3-(4,5-dimethylthiazol-2-yl)-2,5-diphenyltetrazolium bromide] assay, which is commercially available (Sigma, St. Louis, Mo.). Cells were cultured in 96-well plates for twenty-four hours (7-10.000 cells/well) and incubated with various concentrations of the different compounds—as indicated in the Figures—in serum-containing medium (or left untreated) for seventy-two hours. At the end of incubation, the medium was aspirated and MTT dissolved in RPMI 1640 w/o phenol red was added to each well to a final concentration of 0.25 mg/ml. After four hours incubation in the dark (37° C., 5% CO2) the supernatant was discarded. The converted dye (blue formazan crystals) was solubilized by adding 200 μl dimethylsulfoxide to each well. Absorbance was measured at 550 nm with reference at 655 nm using a spectrophotometer with the respective filters. All assays were performed in triplicate.
(§2) The effect of the different compounds on the proliferation and viability of two cancer cell lines (DU145/prostate and CAKI/renal) was tested through quantitative (4,5-dimethylthiazol-2-yl)-2,5-diphenyltetrazolium bromide (MTT) assays.

[1] = test system: membrane androgen receptor; test: Membrane androgen receptor competition assay with testosterone-HSA-FITC in DU145 cells; assay type: binding; design: membrane fluorescence (binding of TAC-FITC to the membrane androgen receptor): dose or concentration left out as unconfirmed
Method: The detection of membrane androgen receptors using fluorescent testosterone-serum albumin conjugates was performed as described by Kampa, M et al., 2002, Faseb J 16:1429-1431, with minor modifications. The assay was used to measure the ability of a given compound to preclude binding of a fluorescent mAR ligand (testosterone-HSA-FITC conjugates) to its receptor in DU145 cells; this compound-induced effect is indicative of direct mAR binding (see Kampa et al and PCT/US2007/007913). […] Coverslips were mounted on slides by using the Slow Fade/Antifade Reagent (Molecular Probes) and studied under a LEICA DMLB microscope, equipped with the appropriate fluorescence filters and a Leica DC 300F camera. Specimens were analyzed using the Leica FW4000 computer program.
Membrane androgen receptor competition assays were performed to determine the capacity of a given compound to preclude binding of fluorescent testosterone-HSA conjugates (TAC) to the membrane androgen receptor. […] Specimens were prepared and analyzed as described above. Compounds binding to the membrane androgen receptor preclude binding of fluorescent testosterone-HSA conjugates to their target and abolish membrane-specific fluorescence.

A549 (Lung) cells = test: Sulforhodamine B (SRB) assay, A549; assay type: cell-based; settings: Homo sapiens
Method: (§3) Sulforhodamine B (SRB) assays were performed according to standard National Cancer Institute Guidelines. Briefly, human tumor cells from different cancer panels were seeded into 96 well plates in […] (plating densities ranging from 5-40,000 cells/well depending on the doubling time of individual cell lines) in serum-containing media for twenty-four hours prior to the addition of the compounds to be assayed. After 24 hours, one plate of each cell line was fixed in situ with trichloroacetic acid (TCA). The fixed slides were used to determine the cell population for each cell line at the time of drug addition (Tz). Each compound to be tested was solubilized in dimethyl sulfoxide (DMSO) and the desired concentration was then added to the medium and diluted serially 1:10 to provide a total of five or ten drug concentrations plus control (in a final volume of 200 μL). The starting dose before any dilution was 100 uM for all compounds.
(§4) Following drug addition, each culture was incubated for forty-eight hours. The assay was terminated with the addition of cold TCA. The supernatant was discarded, and the plates were washed with tap water and air dried. SRB solution was then added to each well. After staining, the bound stain was solubilized and the absorbance was read on an automated plate reader at a wavelength of 515 nm.
(§5) Using the absorbance measurements [time zero, (Tz), control growth, (C), and test growth in the presence of drug at the ten concentration levels (Ti)], the percentage growth was calculated at each of the drug concentrations levels. Percentage growth inhibition was calculated as:
(§6) [(Ti−Tz)/(C−Tz)]×100 for concentrations for which Ti>/=Tz
(§7) [(Ti−Tz)/Tz]×100 for concentrations for which Ti<Tz.
(§8) Three dose response parameters were calculated for each experimental agent. Growth inhibition of 50% (GI50) was calculated from [(Ti−Tz)/(C−Tz)]×100=50, which was the drug concentration resulting in a 50% reduction in the net protein increase (as measured by SRB staining) in control cells during the drug. The drug concentration resulting in total growth inhibition (TGI) was calculated from Ti=Tz. The LC50 (concentration of drug resulting in a 50% reduction in the measured protein at the end of the drug treatment as compared to that at the beginning) indicating a net loss of cells following treatment was calculated from [(Ti−Tz)/Tz]×100=−50.
(§9) Values were calculated for each of these three parameters when the level of activity was reached; however, if the effect was not reached or was exceeded, the value for that parameter was expressed as greater or less than the maximum or minimum concentration tested.

SF268 (CNS) cells = test: Sulforhodamine B (SRB) assay, SF268; assay type: cell-based; settings: Homo sapiens
Method: as §3, §4, §5, §6, §7, §8, §9

PC3 (Prostate) cells = test: Sulforhodamine B (SRB) assay, PC3; assay type: cell-based; settings: Homo sapiens, Prostate cell, 48 h
Method: as §3, §4, §5, §6, §7, §8, §9

HCT116 (Colon) cells = test: Sulforhodamine B (SRB) assay, HCT116; assay type: cell-based, human
Method: as §3, §4, §5, §6, §7, §8, §9

DU145 (Prostate) cells = test: MTT cell proliferation/viability assay, DU145; assay type: cell-based; settings: Homo sapiens, DU-145, 72 h
Method: as §1, §2

H460 (Lung) cells = test: Sulforhodamine B (SRB) assay, H460; assay type: cell-based, human
Method: as §3, §4, §5, §6, §7, §8, §9

For `C[C@]12CCC(=NOC3CCNC3)CC1CCC1C2CC[C@]2(C)C(=O)C(F)CC12` (stereo partly drawn) [Compound 2, (5S,10S,13S,16R)-16a-fluoro-10,13-dimethyl-3-((S)-pyrrolidin-3-yloxyimino)-tetradecahydro-2H-cyclopenta[a]phenanthren-17(14H)-one], the IC50 (CAKI (Renal) cells) was 8750 nM, the “binding to the membrane androgen receptor (conclusion)” value ([1]; DU145 cells) was “capable of binding to the membrane androgen receptor” and the “membrane fluorescence (binding of TAC-FITC to the membrane androgen receptor)” value ([1]; DU145 cells pre-treated with compound for 30 minutes, then testosterone-HSA-FITC) was “largely reduced”. The CC50 (A549 (Lung) cells; A549, 48 h, read-out: LC50) was 599 nM, the GI50 (A549 (Lung) cells; A549 Lung, SRB, 48 h) was 9 nM and the IC (TGI) (A549 (Lung) cells; A549 Lung, SRB, 48 h) was 73 nM. The CC50 (SF268 (CNS) cells; SF-268, 48 h, read-out: LC50) was 112 nM, the GI50 (SF268 (CNS) cells; SF-268, SF268 CNS, SRB, 48 h) was 3 nM and the IC (TGI) (SF268 (CNS) cells; SF-268, SF268 CNS, SRB, 48 h) was 43 nM. The CC50 (PC3 (Prostate) cells; read-out: LC50) was 962 nM, the GI50 (PC3 (Prostate) cells; PC3 Prostate, SRB) was 46 nM and the IC (TGI) (PC3 (Prostate) cells; PC3 Prostate, SRB) was 414 nM. The TGI (HCT116 (Colon) cells; HCT116 Colon, SRB, 48 h) was 156 nM, the CC50 (HCT116 (Colon) cells; Homo sapiens, HCT-116, 48 h, read-out: LC50) was 998 nM and the GI50 (HCT116 (Colon) cells; Homo sapiens, HCT-116, HCT116 Colon, SRB, 48 h) was 8 nM. It also gave an IC50 (DU145 (Prostate) cells) of 250 nM, a TGI (H460 (Lung) cells; H460 Lung, SRB, 48 h) of 7 nM and a CC50 (H460 (Lung) cells; Homo sapiens, NCI-H460, 48 h, read-out: LC50) of 54 nM. For the same compound, the GI50 (H460 (Lung) cells; Homo sapiens, NCI-H460, H460 Lung, SRB, 48 h) was < 1 nM.
